In patent US20150164916A1, “ROFLUMILAST COMPOSITIONS FOR THE TREATMENT OF COPD” (Forest Laboratories Holdings Ltd., priority 2012, published 2015):

Columns and labels:
Type in all cases: cell-based, human
[1] = test system: GCβ; experiment: Real time RT-PCR of GCβ mRNA in CSE-stimulated neutrophils from COPD patients; settings: RNO 1 nM and 1 μM, DEX 1 μM, RNO 1 nM plus DEX 1 μM, NAC 1 mM, CSE 5%
Description: (§1) Neutrophils and monocytes were isolated from peripheral venous blood by standard laboratory procedures. In brief, peripheral venous blood was mixed with dextran 500 at 3% (in 0.9% saline) in a proportion of 2:1. This mixture was incubated at room temperature for 30 min until erythrocytes were sedimented. The upper phase was carefully collected and added on Ficoll-Paque Histopaque 1077 (Amershan Pharmacia Biotech, Barcelona, Spain) density gradient in a proportion of 3:1. The two phases generated were centrifuged at 150 g, 4° C. for 30 min. […]
(§2) CSE was prepared as previously outlined (Milara et al.; Ortiz et al.). […] The quality of the prepared CSE solution was assessed based on the absorbance at 320 nm, which is the specific absorption wavelength of peroxynitrite. Stock solutions with an absorbance value of 3.0±0.1 were used. […]
(§3) Total RNA was obtained from isolated neutrophils under basal conditions or after different drug and stimulation periods defined above by using TriPure® Isolation Reagent (Roche, Indianapolis, USA). […] Relative quantification of these transcripts was determined with the 2^−ΔΔCt method using glyceraldehyde phosphate dehydrogenase (GAPDH) as endogenous control (Applied Biosystems; 4352339E) and normalized to control group as previously described (Milara et al., 2009).
(§4) Then, mRNA was isolated and quantified for different genes.

[2] = test system: PI3Kδ; experiment: Real time RT-PCR of PI3Kδ expression in CSE-stimulated neutrophils from COPD patients; settings: RNO 1 nM and 1 μM, DEX 1 μM, RNO 1 nM plus DEX 1 μM, NAC 1 mM, CSE 5%
Description: as §1, §2, §3, §4

[3] = test system: GM-CSF release; experiment: LPS-induced GM-CSF release in isolated peripheral blood neutrophils (LUMINEX); settings: LPS (1 μg/ml), 6 h
Description: Neutrophils and monocytes were isolated from peripheral venous blood by standard laboratory procedures. In brief, peripheral venous blood was mixed with dextran 500 at 3% (in 0.9% saline) in a proportion of 2:1. This mixture was incubated at room temperature for 30 min until erythrocytes were sedimented. […] The two phases generated were centrifuged at 150 g, 4° C. for 30 min. Thus, the interface was collected to isolate monocytes, and the pellet obtained (which is consisted a mixture of neutrophils and low proportion of residual erythrocytes and traces of eosinophils and basophils) was resuspended in an erythrocyte lysis buffer (Biolegend, UK) for 5 min in ice. Cell suspension was washed two times with phosphate buffer (PBS).
Peripheral neutrophil cell suspension was adjusted to 500×10^3 cells per well in 24-well plates and incubated in RPMI culture medium for 1 h into the incubator at 37° C., 5% CO2. […] Both the stimulus and drug were remained together for 6 h. Supernatants were collected and centrifuged at 120 g for 5 min, and the free-cell supernatant was used to measure IL-8, MMP-9, IL-1β, GM-CSF and CCL-5.
IL-8 was determined by using commercially available enzyme-linked immunosorbent assay kit for IL-8 (R&D Systems, UK) according to the manufacturer's protocol. MMP-9, IL-1β, GM-CSF and CCL-5 were measured by LUMINEX technology according to the manufacturer's protocol.
Data were presented as mean±SEM. IC50 values were calculated for each drug and their combinations. Statistical analysis of results was carried out by analysis of variance (ANOVA) followed by Bonferroni test, by Student's t test, or by non-parametric tests as appropriate (GraphPad Software Inc, San Diego, Calif., USA). Significance was accepted when P<0.05. For clinical correlations of lung function and gene expression from neutrophils the non-parametric Spearman correlation analysis was carried out.

[4] = test system: p-ERK1/2; experiment: Western blot of ERK1/2 phosphorylation in CSE-stimulated neutrophils from COPD patients; settings: RNO 1 nM and 1 μM, DEX 1 μM, RNO 1 nM plus DEX 1 μM, NAC 1 mM for 1 h, then CSE 5% 20 min
Description: as §1, §2
Western blot analysis was used to detect changes in p-ERK1/2 (42-44 kD). […] Cells were then centrifuged and the total protein was extracted using a lysis buffer consisting of a complete inhibitor cocktail plus 1 mM ethylenediaminetetraacectic acid (Roche Diagnostics Ltd, West Sussex, UK) with 20 mM Tris base, 0.9% NaCl, 0.1% Triton X-100, 1 mM dithiothreitol and 1 μg mL^−1 pepstatin A. The Bio-Rad assay (Bio-Rad Laboratories Ltd., Herts, UK) was used (following manufacturer's instructions) to quantify the level of protein in each sample to ensure equal protein loading. […]

O=C(Nc1c(Cl)c[n+]([O-])cc1Cl)c1ccc(OC(F)F)c(OCC2CC2)c1 [RNO, roflumilast N-oxide] was tested, and the “effect on CSE-induced GCβ upregulation” value [1] was “inhibited”, the “effect on CSE-induced PI3Kδ upregulation” value [2] was “inhibited” and the “-log IC50, inhibition of GM-CSF release” value ([3]; neutrophils from COPD patients) was 8.10 ± 0.22. The “Maximal % Inhibition of GM-CSF release” value ([3]; neutrophils from COPD patients) was 86.6 ± 8.04%, the “-log IC50, inhibition of GM-CSF release” value ([3]; neutrophils from HEALTHY) was 8.25 ± 0.21 and the “Maximal % Inhibition of GM-CSF release” value ([3]; neutrophils from HEALTHY) was 78.87 ± 6.57%. The “effect on CSE-induced phosphorylation of ERK1/2” value [4] was “effectively inhibited”.
